Source: US20180179292A1, “RKIP AGONISM IN THE TREATMENT AND PREVENTION OF HEART FAILURE” (Leibniz-Institut für analytische Wissenschaften- ISAS-e.V., priority 2015, published 2018)
Marks after values point to notes of the source that are not given here.

Experiments:
[1] = tested on: Wt and RKIP-tg mice; assay: Left ventricular catheterization with esmolol infusion; format: in vivo, mouse
Experimental: For left ventricular pressure measurements we inserted a 1.4F pressure catheter (Millar Instruments) into the right carotid artery and advanced it to the left ventricular chamber. During measurement we injected esmolol (12 μg/min for 1 min) or dobutamine (in increasing doses: 75, 150, 375, 750 and 1500 ng/min) into the V. jugularis. We analyzed data using the Chart software (Chart5.4, AD Instruments) as previously described^60. We excluded mice with heart rates below 450 bpm (or below 430 bpm in the case of β1KO or RKIP-tg/β1KO mice).

[2] = tested on: RyR2, PLN and TnI phosphorylation; assay: Isoproterenol infusion with or without ICI 118,551, immunoblot of heart lysates; format: in vivo, mouse
From the text: Immunoblot quantification of (a) pPLN(S16), (b) pTnI (SS23/24), (c) pRyR2(S2808) and pRyR2(S2814) in heart lysates of untreated (Con) and isoproterenol-treated mice and mice treated with Iso in combination with ICI 118,551. pPLN(S16), n=13; pTnI(SS23/24), n=11; pRyR2(S2808), n=12; n are mice per group; mean±SEM; *, p<0.05 vs. Con. Immunoblot analysis of Con vs. Iso for RyR2 phosphorylation (pRyR2[S2808] and pRyR2[S2814]) show significant differences when a t-test analysis is applied (#, p<0.05 vs. Con).
We intravenously infused isoproterenol (1.1 μg/min for 2 min) with or without ICI 118,551 (0.14 μg/min for 2 min) via the V. jugularis as indicated. We pretreated mice with pertussis toxin (PTX; 300 μg/kg body weight; i.p) for 24 h as indicated. Mice were sacrificed and hearts were used for Western blot analyses. Efficiency of Gαi inhibition by PTX was evaluated by in vitro PTX-catalyzed ADP ribosylation in the presence of [^32P]-nicotinamide adenine dinucleotide ([^32P]NAD). […] After filtration through a 200 μm-mesh, we determined the protein content of the tissue homogenate and then incubated 30 μg of protein with 0.1 μM [^32P]NAD (800 Ci/mmol) in a buffer containing 20 mM Tris-HCl (pH7.6), 15 mM thymidine, 1 mM EDTA, 1 mM ATP, 0.1 mM GDP and 1 μg of PTX (preactivated) for 1 h at 30° C. […] Proteins were separated on SDS-PAGE and incorporated [^32P] was assessed by Phospholmager analysis. […]

[3] = tested on: Wt mice; assay: Chronic isoproterenol infusion via osmotic minipumps in Wt mice (echocardiography, interstitial fibrosis); format: in vivo, mouse; details: mean ± SEM
Experimental: (§1) Echocardiographic measurements and histological analysis of interstitial fibrosis of wild-type (Wt) and RKIP transgenic (RKIP-tg) mice before and after 4 weeks of isoproterenol application via osmotic minipumps (Iso; 30 mg/kg/d). Shown are measurements of wall thicknesses (interventricular septal [IVS] and left ventricular posterior wall [LVPW]), left ventricular internal dimension (LVID), fractional shortening (FS), ejection fraction (EF), heart rates and the quantification of interstitial fibrosis (arbitrary units) of Sirius Red-stained left ventricular myocyrdial sections. Values represent mean (±SEM); *, p<0.05 vs. Con; #, p<0.05 vs. Wt Iso; $, p<0.05 vs. Wt Con. n represent the number of mice (for the analysis of interstitial fibrosis one transverse section was analyzed per mouse).
(§2) Osmotic minipumps (Alzet, model 1004) were implanted subcutaneously in male 8-week old Wt and RKIP-tg mice (C57/BL/6J background). The implanted pumps continuously released isoproterenol for 4 weeks (30 mg/kg body weight/day).
(§3) We performed transthoracic echocardiograms in a blinded manner using the Vevo700 or Vevo2100 high-resolution imaging systems (VisualSonics) and a 30-MHz probe. We obtained values for end-diastolic septal and posterior wall thicknesses as well as end-diastolic and -systolic internal diameters from 2D M-mode images in the short axis view at the proximal level of the papillary muscles. We obtained peak blood flow velocities at the site of TAC [Vmax (millimetres per second)] from pulsed-waved Doppler measurements. We calculated fractional shortening (FS), ejection fraction (EF), and aortic pressure gradients (mmHg) by VisualSonics Cardiac Measurements software. The shown data represent averages of at least six cardiac cycles per animal. We excluded mice with heart rates below 450 bpm (or below 430 bpm in the case of β1KO or RKIP-tg/(β1KO mice).
(§4) After fixation of hearts in 4% (m/v) paraformaldehyde, hearts were embedded in paraffin. Sections (2 μm) were stained with haematoxylin and eosin or with Sirius Red as described previously^60. For quantification of fibrosis, we stained left ventricular sections with Sirius Red and subsequently analyzed […] by semi-automated image analyses in blinded manner. For immunostaining, we used Vectastain Elite ABC Reagent with biotinylated goat-anti-rabbit IgG in combination with diaminobenzidine (DAB) and glucose oxidase (Sigma) similarly as described previously^60,61. We counterstained nuclei with haematoxylin.

[4] = tested on: RKIP-tg mice; assay: Chronic isoproterenol infusion via osmotic minipumps in RKIP-tg mice (echocardiography, interstitial fibrosis); format: in vivo, mouse; details: mean ± SEM
Experimental: as §1, §2, §3, §4

[5] = tested on: RKIP; assay: RKIP activation (Ser153 phosphorylation, pRKIP) in neonatal rat cardiomyocytes (Western blot); format: cell-based; details: NRCM, 25 and 75 μg/ml, 30 h
Experimental: NRCM were treated with rituximab (25 μg u. 75 μg/ml) or bevacizumab (25 μg u. 75 μg/ml) for 30 h and Western blot analysis performed. Gβ was used as loading control.
NRCM were treated with rituximab (25 μg u. 75 μg/ml) for 30 h and Western blot analysis and quantification using ImageJ was performed. Gβ was used as loading control. SEM, n=3, *, p=0.0004
NRCM were treated with rituximab (25 μg u. 75 μg/ml) for 30 h and Western blot analysis and quantification using ImageJ was performed. Gβ was used as loading control. SEM, n=4, *, p=0.0004
We homogenized left ventricular tissue or cells in lysis buffer (1% [v/v] Triton-X-100, 5 mM EDTA, 300 mM NaCl, 50 mM Tris [pH7.4], supplemented with protease and phosphatase inhibitors). We removed cell debris by centrifugation (10 min, 1000×g, 4° C.) and used lysates for Western blot analysis: We determined protein concentrations and used equal amounts of protein for immunoblot analysis. We separated proteins by SDS-PAGE and transferred them to PVDF membranes. […] To average our immunoblot experiments and to present semi-quantitative results, we quantified immunoblot signals using ImageJ. […]

[6] = tested on: RKIP; assay: RKIP expression in neonatal rat cardiomyocytes (Western blot); format: cell-based; details: NRCM, 75 μg/ml, 30 h
Experimental: 500 000 NRCM/Well were plated in 12 Well plates, cultured for 24 h and subsequently treated with the indicated compounds for 30 h inkubiert. Cells were lysed, Western blots performed and signals were quantified using ImageJ (n=11). Shown are SEM; *. p=0.0003
We homogenized left ventricular tissue or cells in lysis buffer (1% [v/v] Triton-X-100, 5 mM EDTA, 300 mM NaCl, 50 mM Tris [pH7.4], supplemented with protease and phosphatase inhibitors). We removed cell debris by centrifugation (10 min, 1000×g, 4° C.) and used lysates for Western blot analysis: We determined protein concentrations and used equal amounts of protein for immunoblot analysis. We separated proteins by SDS-PAGE and transferred them to PVDF membranes. We blocked membranes for 1 h with 5% (w/v) fat-free milk dissolved in 10 mM Tris (pH7.6), 100 mM NaCl and 0.1% (v/v) Tween-20, incubated membranes with primary antibodies overnight at 4° C., thereafter with secondary antibodies conjugated with horseradish peroxidase (HRP) and used the Pierce™ ECL Plus Western blotting kit for detection. To average our immunoblot experiments and to present semi-quantitative results, we quantified immunoblot signals using ImageJ.
For the detection of RKIP phosphorylation (“activation as GRK2 inhibitor”), we used antibodies directed againt Ser153-phosphorylation of RKIP (pRKIP[hSer153], sc-32623, Santa Cruz Biotechnology; pRKIP [rSer153], sc-32622, Santa Cruz Biotechnology). For RKIP expression levels we used antibodies directed against RKIP (RKIP, sc5422, Santa Cruz Biotechnology; RKIP antibodies raised against recombinant GST-RKIP as antigen (Lorenz et al., 2003).
We tested an anti-CD20 antibody (such as rituximab) and an anti-VEGF antibody (such as bevacizumab) and several other therapeutic antibodies (obtained from the hospital pharmacy, Uniklinik Wiirzburg) on RKIP expression and RKIP activation (Ser153 phosphorylation) in neonatal rat cardiomyocytes as well as cardiomyocyte contractility.

[7] = tested on: neonatal rat cardiomyocytes (NRCM); assay: Contractile activity of neonatal rat cardiomyocytes; format: cell-based; details: in the presence of isoprenaline (50 nM), 33° C., beats per minute
Experimental: NRCM were cultured for 24 h and transduced as indicated with a control virus (LacZ) or a virus encoding RKIP-wt and/or treated with rituximab as indicated. The spontaneous contractions were measured at 33° C. for one minute and normalized for each experiment to LacZ under unstimulated conditions. NRCM were then stimulated with isoproterenol (50 nM) and after 2 min contractions were counted again. SEM; *, p<0.0001, n=5
Neonatal rat cardiomyocytes were isolated as described (Lorenz et al. Nature 2003, 426:574-579; Vidal et al., Cardiovasc. Res. 2012, 96:255-264). Cardiomyocytes were transduced by adenoviruses or treated with indicated antibodies. To monitor the contractile activity of cardiomyocytes, live cells were examined on a Zeiss Axiovert 135 microscope.

[8] = 4 weeks isoproterenol 30 mg/kg/d via osmotic minipumps
[9] = 4 weeks isoproterenol 30 mg/kg/d, Sirius Red-stained left ventricular sections

`COC(=O)CCc1ccc(OCC(O)CNC(C)C)cc1` (stereo not drawn) [Esmolol, esmolol] was tested, and the “rates of contraction and relaxation (dP/dtmax, dP/dtmin)” value ([1]; esmolol 12 μg/min for 1 min, RKIP-tg mice) was “largely attenuated increased rates of contraction and relaxation” and the heart rates ([1]; esmolol 12 μg/min for 1 min into V. jugularis, Wt and RKIP-tg mice) was “effectively reduced heart rates”.
In the case of `Cc1ccc(OCC(O)C(C)NC(C)C)c2c1CCC2` (stereo not drawn) [ICI 118,551], the “RyR2(S2808/S2814) phosphorylation” value ([2]; isoproterenol plus ICI 118,551 (0.14 μg/min for 2 min i.v.) vs. isoproterenol alone) is reported as “much stronger phosphorylation of RyR2” and the “PLN and TnI phosphorylation” value ([2]; isoproterenol plus ICI 118,551 vs. isoproterenol alone) is reported as “hardly affected PLN and TnI phosphorylation”.
`CC(C)NCC(O)c1ccc(O)c(O)c1` (stereo not drawn) [Iso, isoproterenol] was tested, and the EF [3, 8] was 73.0 ± 2.52^$ %, the FS [3, 8] was 41.6 ± 2.00^$ % of LVID and the Heart rate [3, 8] was 654 ± 25* bpm. For the same compound, the “IVS, end-diastolic” value [3, 8] was 0.74 ± 0.039* mm, the “LVID, end-diastolic” value [3, 8] was 3.69 ± 0.172 mm and the “LVPW, end-diastolic” value [3, 8] was 0.76 ± 0.036* mm. The Interstitial fibrosis [3, 9] was 2.05 ± 0.336* arbitrary units, the EF [4, 8] was 87.1 ± 1.64*^# % and the FS [4, 8] was 55.9 ± 1.98*^# % of LVID. For the same compound, the Heart rate [4, 8] was 668 ± 21* bpm, the “IVS, end-diastolic” value [4, 8] was 0.81 ± 0.026* mm and the “LVID, end-diastolic” value [4, 8] was 3.08 ± 0.086 mm. For the same compound, the “LVPW, end-diastolic” value [4, 8] was 0.84 ± 0.022* mm and the Interstitial fibrosis [4, 9] was 1.05 ± 0.263*^# arbitrary units.
“bevacizumab: anti-VEGF antibody, recombinant humanized monoclonal IgG1” was tested, and the “"active" RKIP (Ser153-phosphorylation)” value [5] was “increased” and the RKIP expression [6] was “most up-regulation of RKIP expression”.
With panitumumab: anti-EGFR antibody the RKIP expression [6] was “up-regulation of RKIP expression”.
In the case of rituximab: anti-CD20 antibody, the NRCM contractility [7] is reported as “increased NRCM contractility”, the “"active" RKIP (Ser153-phosphorylation)” value [5] is reported as “increased” and the RKIP expression [6] is reported as “even more prominent up-regulation of RKIP”.
